From PMC8948829, “The Escherichia coli Amino Acid Uptake Protein CycA: Regulation of Its Synthesis and Practical Application in L-Isoleucine Production” (Microorganisms, 2022)

Target: T1, CycA (Escherichia coli, UniProt P0AAE0)
T1 construct: full-length native 470 aa inner-membrane permease, chromosomal cycA overexpressed from PL promoter (strain M1, MG1655 cat-PL-cycA), whole cells
T1 sequence (P0AAE0 1-470): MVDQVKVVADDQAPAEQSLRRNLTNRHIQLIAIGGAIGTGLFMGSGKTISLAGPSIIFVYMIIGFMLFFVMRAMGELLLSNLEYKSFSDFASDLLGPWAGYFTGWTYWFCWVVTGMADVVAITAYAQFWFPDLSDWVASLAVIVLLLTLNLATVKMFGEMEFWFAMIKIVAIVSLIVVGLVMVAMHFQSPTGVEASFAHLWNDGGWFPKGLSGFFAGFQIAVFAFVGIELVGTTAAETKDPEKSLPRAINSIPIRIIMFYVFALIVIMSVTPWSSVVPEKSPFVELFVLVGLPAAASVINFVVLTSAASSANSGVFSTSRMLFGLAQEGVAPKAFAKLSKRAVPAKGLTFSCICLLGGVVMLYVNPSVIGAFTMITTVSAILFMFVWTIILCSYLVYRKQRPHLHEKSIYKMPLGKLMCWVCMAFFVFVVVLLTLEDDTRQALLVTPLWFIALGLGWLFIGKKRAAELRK
Assay: amino acid uptake (extracellular depletion), cycA-overexpressing versus wild-type cells
Format: cell-based
Details: 50 mM, N-free M9 medium, 37 °C, 6 h; other native importers intact

Row | SMILES | uptake rate
1 | CC[C@H](N)C(=O)O [AABA] | the uptake rate was higher in the case of the M1 strain, especially for Ala and AABA
2 | C[C@H](N)C(=O)O [Ala] | the uptake rate was higher in the case of the M1 strain, especially for Ala and AABA
